Assay results taken from PMC8217170, “Phase Ib dose-escalation study of the hypoxia-modifier Myo-inositol trispyrophosphate in patients with hepatopancreatobiliary tumors” (Nature Communications, 2021).
“And” between values parts separate entries of the source, which are not always exact repeats. Equal entries are not always repeated.

What was measured:
[1] = system: target lesions of PDAC, CRLM, CCA and HCC; experiment: Metabolic radiological response, FDG-PET-CT, EORTC criteria; type: in vivo, human; design: key to EORTC response after chemotherapy / EORTC response after ITPP / RespITPP_EORTC / RespChemo_EORTC: CMR = complete metabolic response; PMR = partial metabolic response; SMD = stable metabolic disease; PMD = progressive metabolic disease; Lesion1_pre_TLG / Lesion1_post_TLG / Lesion1_chemo_TLG / Lesion2_pre_TLG / Lesion2_post_TLG / Lesion2_chemo_TLG / Lesion3_pre_TLG / Lesion3_post_TLG / Lesion3_chemo_TLG / Lesion4_pre_TLG / Lesion4_post_TLG / Lesion4_chemo_TLG / Lesion5_pre_TLG / Lesion5_post_TLG / Lesion5_chemo_TLG: unit not given here; settings: for RespITPP_EORTC / RespChemo_EORTC: EORTC
Description: Radiological assessment, consisting of abdominal MRI and FDG-PET-CT, was performed before ITPP administration and after the 3-week treatment course. Where possible, radiological re-evaluation was performed after 3–6 cycles of chemotherapy. Radiological responses were evaluated according to the RECIST 1.1 criteria[56] for MRI and EORTC criteria[57] for FDG-PET-CT imaging.
Then first calculate the sum of diameters (DM) and SUV-activities of radiological target lesions before ITPP (sum_pre), after ITPP (sum_post) and after subsequent chemotherapy (sum_chemo) for assessment of morphological RECIST1.1 (diameter) and metabolical EORTC (SUV activiy) responses.
Patient 1 (dropout after only 2 infusions and subsequent death due to rapid oncological progression) is excluded for radiological assessment due to no follow up imaging available.
In a second step, we calculate percent changes (PC) of diameter and SUV activity between before ITPP, after ITPP and after chemotherapy.

[2] = system: EGF; experiment: Serum angiogenesis marker, multiplex bead-based immunoassay (LEGENDplex); type: in vivo, human; design: EGF: unit not given here; settings: for EGF: serum, duplicate wells
[3] = system: patients with PDAC, CRLM, CCA and HCC; experiment: Progression free and overall survival; type: in vivo, human; settings: for Follow up from study start / Survival status: individual patients; for Survival status: per 31st of December 2018
Description: Ad hoc outcomes consisted of assessment of overall survival of patients in regard to tumor type and cohort as well as histological assessment of hypoxia markers in tumor tissue of selected patients.
Cohort size was based on the traditional 3 + 3 dose-escalation scheme without formal power or sample size calculation. Data are summarized with descriptive statistics using medians and interquartile ranges (IQRs) as indicated. Pearson’s coefficient was used to test for correlation between numerical variables, and Mann–Whitney U or Kruskal–Wallis tests for differences in continuous variables among groups. Kaplan–Meier curves and the Mantel–Cox log rank test were used for survival analyses. No adjustment for multiple testing was performed.

[4] = design: method as in unpublished data obtained from NormOxys; settings: minipigs, once weekly; ref unpublished data obtained from NormOxys; cited from earlier work
[5] = system: VEGFA; experiment: Serum angiogenesis marker, multiplex bead-based immunoassay (LEGENDplex); type: in vivo, human; design: VEGF: unit not given here; settings: for VEGF: serum, duplicate wells
[6] = design: method as in NormOxys phase I clinical trial; settings: ref NormOxys phase I clinical trial, cited from earlier work
[7] = individual patients, lesion 5, post ITPP
[8] = individual patients, lesion 5, pre ITPP (baseline)
[9] = following ITPP treatment, 27 patients
[10] = Patient 25, Cohort 8, PDAC, Day 3 post
[11] = Patient 25, Cohort 8, PDAC, Day 9 post
[12] = Patient 26, Cohort 8, PDAC, Day 3 post
[13] = Patient 26, Cohort 8, PDAC, Day 9 post
[14] = Patient 27, Cohort 8, CCC, Day 3 post
[15] = Patient 27, Cohort 8, CCC, Day 9 post
[16] = Patient 28, Cohort 8, CRLM, Day 3 post
[17] = Patient 28, Cohort 8, CRLM, Day 9 post

O=P1(O)OC2C3OP(=O)(O)OP(=O)(O)OC3C3OP(=O)(O)OP(=O)(O)OC3C2OP(=O)(O)O1 (stereo not drawn) [ITPP, Myo-inositol trispyrophosphate]
Lesion5_post_SUV [1, 7]: 6.8 and 10.7 and 1.35 and 6.92 | Lesion5_post_TLG [1, 7]: 18.9 and 0 and 11.9 | Lesion5_pre_SUV [1, 8]: 7.3 and 11.5 and 6.85 and 3.5 and 3.76 | Lesion5_pre_TLG [1, 8]: 7.3 and 4.3 and 0.6 and 2.7 | RespITPP_EORTC ([1]; individual patients, metabolic response after ITPP monotherapy): SMD and PMR and PMD | RespChemo_EORTC ([1]; individual patients, metabolic response after subsequent chemotherapy following ITPP): SMD and PMD and PMR | RespITPP_EORTC ([1]; metabolic response after ITPP, per individual patient, cohort c1, tumor c2): SMD and PMR and PMD | RespChemo_EORTC ([1]; metabolic response after chemotherapy following ITPP, per individual patient, cohort c1, tumor c2): SMD and PMD and PMR | Share of patients with reduced EGF [2, 9]: 85.2% | EGF [2, 10]: 16.25 | EGF [2, 11]: 11.62 and 15.2 | EGF [2, 12]: 14.41 and 12.95 | EGF [2, 13]: 9.76 and 9.88 | EGF [2, 14]: 5.57 and 4.9 | EGF [2, 15]: 9.82 and 10.17 | EGF [2, 16]: 2.39 and 3.39 | EGF [2, 17]: 3.09 and 2.24 | Median OS from start of ITPP infusions ([3]; CCA): 302 days | Median progression free survival (PFS) ([3]; CCA): 158 days | Median OS from start of ITPP infusions ([3]; CRLM): 340 days | Median progression free survival (PFS) ([3]; CRLM): 23 days | Median OS from start of ITPP infusions ([3]; HCC): 684 days | Median progression free survival (PFS) ([3]; HCC): 345 days | Median OS from start of ITPP infusions ([3]; PDAC): 165 days | Median progression free survival (PFS) ([3]; PDAC): 32 days | Follow up from study start ([3]; cohort 1 (1866 mg/m2)): 16 days and 464 days and 159 days and 398 days | Survival status ([3]; cohort 1, 1866 mg/m2): Dead | Follow up from study start ([3]; cohort 2 (3732 mg/m2)): 783 days and 188 days and 158 days | Survival status ([3]; cohort 2, 3732 mg/m2): Dead | Follow up from study start ([3]; cohort 3 (5600 mg/m2)): 159 days and 171 days and 206 days | Survival status ([3]; cohort 3, 5600 mg/m2): Dead | Follow up from study start ([3]; cohort 4 (7000 mg/m2)): 193 days and 219 days and 684 days and 10 days | Survival status ([3]; cohort 4, 7000 mg/m2): Dead | Follow up from study start ([3]; cohort 5 (8750 mg/m2)): 196 days and 202 days and 68 days | Survival status ([3]; cohort 5, 8750 mg/m2): Dead | Follow up from study start ([3]; cohort 6 (10500 mg/m2)): 394 days and 510 days and 500 days and 301 days | Survival status ([3]; cohort 6, 10500 mg/m2): Dead and Alive | Follow up from study start ([3]; cohort 7 (12390 mg/m2)): 87 days and 380 days and 392 days | Survival status ([3]; cohort 7, 12390 mg/m2): Dead and Alive | Follow up from study start ([3]; cohort 8 (14500 mg/m2)): 43 days and 73 days and 266 days and 206 days | Survival status ([3]; cohort 8, 14500 mg/m2): Dead and Alive | Overall survival ([3]; patients with a lowering of PECAM1/CD31 under ITPP, p = 0.36): 380 days | Overall survival ([3]; patients with a lowering of VEGFA under ITPP, p = 0.053): 398 days | Overall survival ([3]; patients without lowering of PECAM1/CD31 under ITPP): 171 days | Overall survival ([3]; patients without lowering of VEGFA under ITPP): 196 days | Median OS from start of ITPP infusions ([3]; whole patient population): 206 days | Median progression free survival (PFS) ([3]; whole patient population): 48 days | Human equivalent dose-corrected NOAEL [4]: 43,750 mg/m2 | Share of patients with reduced VEGFA [5, 9]: 44.4% | VEGF [5, 10]: 30.91 | VEGF [5, 11]: 33.24 and 35.03 | VEGF [5, 12]: 5.98 and 4.62 | VEGF [5, 13]: 11.09 and 13.08 | VEGF [5, 14]: 10.87 and 8.9 | VEGF [5, 15]: 8.12 and 8.9 | VEGF [5, 16]: 2.84 | VEGF [5, 17]: 2.84 | Subjects with treatment-emerged adverse effects (TEAEs) ([6]; ITPP-treated group, 750 to 5600 mg/m2, intravenous infusion during 4 h): 9/24 | Dose well tolerated in unaffected volunteers [6]: 5600 mg/m2 | Serious adverse effects or deaths associated with TEAEs [6]: No serious adverse effects (SAEs) or deaths
